This is an account of results in publication PMC9413440, “An Iterative Approach Guides Discovery of the FabI Inhibitor Fabimycin, a Late-Stage Antibiotic Candidate with In Vivo Efficacy against Drug-Resistant Gram-Negative Infections” (ACS Central Science, 2022).

Data set [1] deals with HFF-1, A549, HepG2 cells. Conditions: 72 h. The procedure:
HFF-1 cells (newborn) were obtained from the ATCC. HFF-1 cells were grown in Dulbecco’s Modified Eagle’s minimum essential medium with 15% fetal bovine serum (Gemini Benchmark; catalogue number: 100-106), 100 µg/mL penicillin and 100 µg/mL streptomycin. A549 cells ([…], adult) were obtained from the ATCC. A549 cells were grown in Roswell Park Memorial Institute (RPMI) media with 100 µg/mL penicillin and 10% fetal bovine serum (FBS). HepG2 cells were authenticated by the University of Arizona Genetics Core using an autosomal STR profile. HepG2 cells were grown in Dulbecco’s Modified Eagle’s minimum essential medium with 10% fetal bovine serum. All cells were cultured at 37 °C under a 5% CO2 environment. Cell lines were authenticated by a commercial vendor and inspected visually in house. Cell lines were not tested for Mycoplasma contamination. The media was prepared by the University of Illinois School of Chemical Sciences Cell Media Facility.
H. sapiens HFF-1, A549, and HepG2 cells were seeded (3,000-6,000 cells/well) in a 96-well plate (Greiner Bio-One;

Data set [2] is described as follows: Pharmacokinetic assessment in neutropenic A. baumannii-infected mice. The data set is classed as in vivo, mouse. To be noted: for Cmax / AUC(0-t) / clearance / half-life: single dose; for TimeHigh: time above the MIC of the infective strain (2 µg/mL). An excerpt: Pharmacokinetic assessment
The protocol to assess fabimycin’s pharmacokinetic properties in A. baumanii-infected mice (strain: AR-0088) was approved by the IACUC at Pharmacology Discovery Services, Taiwan, Ltd. (protocol mumber: PK001-09212018). In this study, neutropenic female BALB/c mice 7-8 weeks in age from BioLASCO Taiwan (AAALAC-certified Charles River Licensee) weighing 18 ± 2 grams were used.10 All animals were specific pathogen free. Mice were rendered neutropenic via cyclophosphamide (CP) administration by two intraperitoneal (IP) injections following a standard method for mouse thigh infection models.11 The first CP dose, 150 mg/kg, was administered at four days before infection (Day –4); and the second, 100 mg/kg, at 24 h before infection (Day –1), prior to infection on Day 0.
To inoculate the mice, A. baumannii cultures were first generated by seeding brain heart infusion (BHI, 20 mL) with an aliquot (0.2 mL) of a single-used glycerol stock of A. baumannii AR-0088 stored at -80 °C and incubating at 35-37 °C with shaking (250 rpm) for 6 hours. An aliquot of this culture (1.0 mL) was used to seed fresh BHI media (99 mL) and this shaken (250 rpm) at 35-37 °C for 16 hours. Bacterial cells were harvested by centrifuging 20 mL of this outgrowth culture (3,500 x g) for 15 minutes and re-suspending in fresh cold phosphate buffered saline (PBS, 10 mL). The optical density at 620 nm was measured and used to guide dilutions. PBS suspensions were stored on ice for no more than 1 hour prior to animal inoculation. The bacterial count in the challenge organism suspension was enumerated by dilution plating on to nutrient gar plates followed by 20-24 hour incubation. The target inoculum is 1.0 * 10^5 CFU/mouse for the strain […]
Fabimycin was IV administered once followed by terminal blood sampling at 8 time points with cardiac puncture (5, 15, 30, 45, 60, 120, 240, and 480 minutes). Terminal blood collection from cardiac puncture was conducted under CO2 euthanasia. Blood, 0.3-0.4 mL, was drawn into tubes coated with K2EDTA, mixed gently and kept on ice and centrifuged at 12,000 × g for 5 minutes at 4°C within 1 hour of collection. The plasma was harvested and stored at -80 °C until further processing. Thigh tissues were aseptically harvested from the left thigh of the infected animals, weighed, and homogenized in sterile PBS (3 mL, pH 7.4) with a Polytron homogenizer. The thigh homogenate was collected and stored at -80 °C until further processing.
For LC-MS/MS sample processing a 20 µL aliquot of each plasma and thigh sample was transferred to 96 well plate. A 300 µL aliquot of 0.01 ng/µL internal standard (IS), oxybutynin, in MeOH/FA=95/5 was added to each tube except for the double blank and carryover controls. A 300 μL aliquot of MeOH/FA=95/5, without oxybutynin, was added to the double blank and carryover assay wells. The equilibrated mixture was vortexed for 1 min and then centrifuged at 4,000 rpm for 5 min at 20 °C to precipitate protein. After centrifugation, 50 µL of the supernatant was transferred to a new well of the 96 well plate and 500 μL H2O/FA=100/0.2 added for LC-MS/MS analysis. Plasma and thigh samples from treatment groups and the calibration curve samples were processed on the same test occasion using the same procedure.
The calibration curve samples were generated by spiking aliquots of drug-free plasma or thigh homogenates with the test article dilution. The quality control (QC) samples, QH (high), QM (medium) and QL (low) were each assayed in duplicate. The PK parameters for the IV doses were obtained from the non-compartmental analysis (NCA) of the plasma and thigh homogenate data using WinNonlin (Phoenix® Build 8.3.1.5014).
LC-MS/MS runs were conducted with a SCIEX Triple Quad™ 5500+ mass sp ectrometer. Method development was conducted to determine appropriate conditions for LC-MS/MS analysis of fabimycin. A titration of a stock solution was performed to correlate peak areas and the corresponding concentration. […]

Where [3] appears, read: female, BALB/c, mouse, plasma, 75 mg/kg, IV.
The mark [4] stands for this setting: female, BALB/c, mouse, plasma, 100 mg/kg, IV.
The mark [5] stands for this setting: female, BALB/c, mouse, thigh, 75 mg/kg, IV.
The mark [6] stands for this setting: female, BALB/c, mouse, thigh, 100 mg/kg, IV.

For orientation: Cmax means the highest concentration seen after dosing. As a reminder, the AUC(0-t) is the area under the concentration-time curve up to a stated or last time point. The low end stands for low exposure, the high end for high exposure. As usually defined, the clearance is the rate of elimination divided by the concentration. High values mean a high capacity for elimination, low ones a low capacity for elimination. Broadly, the half-life is the time needed for the level to fall by half in the phase considered.

Molecules are shown by their SMILES. Read-outs that look alike come from different tables or passages of the source.

Regarding `Cc1c(CN(C)C(=O)/C=C/c2cnc3c(c2)CC[C@H](N)C(=O)N3)oc2ccccc12` [fabimycin], the “cytotoxicity against human cell lines” value in data set [1] is on record as “less cytotoxic relative to Debio-1452-NH3”. The Cmax stood at 34600 ng/mL in data set [2] (female, BALB/c, mouse, plasma, iv, 75 mg/kg, plasma, 75 mg/kg, read-out: Cmax); 47300 ng/mL in data set [2] (female, BALB/c, mouse, plasma, iv, 100 mg/kg, plasma, 100 mg/kg, read-out: Cmax); 33000 ng/g in data set [2] (female, BALB/c, mouse, thigh, iv, 75 mg/kg, thigh, 75 mg/kg, read-out: Cmax); 60200 ng/g in data set [2] (female, BALB/c, mouse, thigh, iv, 100 mg/kg, thigh, 100 mg/kg, read-out: Cmax); 47000 ng/mL in data set [2] (plasma, 100 mg/kg, IV). Moreover, the AUC(0-t) in data set [2] (setting [3]) is 45400 ng·h/mL; in data set [2] (setting [4]), 69800 ng·h/mL; in data set [2] (setting [5]), 65200 ng·h/mL; in data set [2] (setting [6]), 112000 ng·h/mL. Further, the clearance in data set [2] (setting [3]) is 26.9 mL/min/kg; in data set [2] (setting [4]), 23.5 mL/min/kg; in data set [2] (setting [5]), 18.9 mL/min/kg; in data set [2] (setting [6]) it was 14.7 mL/min/kg. Moreover, the half-life in data set [2] (setting [3]) is 1.4 h; in data set [2] (setting [4]) it was 1.4 h; in data set [2] (setting [5]), 1.39 h; in data set [2] (setting [6]) it was 1.24 h. In addition, the TimeHigh in data set [2] (plasma, 75 mg/kg, IV) is recorded as 5.70 h; in data set [2] (plasma, 100 mg/kg, IV), 6.67 h; in data set [2] (thigh, 75 mg/kg, IV) it was “over 6 h”; in data set [2] (thigh, 75 mg/kg, IV, listed as Fabimycin), 6.22 h; in data set [2] (thigh, 100 mg/kg, IV), 7.19 h.
